Laboratory results reported in US5422126A, “Halogen compositions for water treatment and method of preparation thereof” (priority 1993, dated 1995).
Values after ≈ are worked out from the molar mass of the structure shown.

Columns and labels:
[1] = Water solubility of solid halogenated hydantoins and amount of halogen dissolved in a saturated solution; conditions: for Amount of halogen dissolved in saturated solution: saturated solution in water
physchem = conditions: water

solubility ([1]; water) | solubility (physchem) | SMILES | Amount of halogen dissolved in saturated solution [1] | Water solubility ([1]; solid halogenated hydantoin in water)
 |  | CC1(C)C(=O)N(Cl)C(=O)N1Br [Bromo-chlorodimethylhydantoin, bromochlorodimethylhydantoin] | 825 mg/L as Cl2 | 0.15%
1100 µg/mL (≈ 3.85 mM) |  | CC1(C)C(=O)N(Br)C(=O)N1Br [Dibromodimethylhydantion, 1,3-dibromo-5,5-dimethylhydantoin] | 542 mg/L as Cl2 | 
 | 2100 µg/mL (≈ 10.7 mM) | CC1(C)C(=O)N(Cl)C(=O)N1Cl [Dichlorodimethylhydantoin, dichlorodimethylhydantoin] |  | 
